In patent US7495028B2, “R-bambuterol, its preparation and therapeutic uses” (priority 2002, dated 2009):

Columns and labels:
[1] = in plasma; cited from earlier work
[2] = Serum concentration of active parent form (terbutaline) after oral dosing; assay type: in vivo, guinea pig; details: guinea pigs, 8 mg/kg oral, four hours later
Protocol: Based on the pharmacokinetic studies of racemic bambuterol hydrochloride, about 50% of absorbed bambuterol is hydrolyzed to terbutaline, the active-parent form, in plasma. There is little cholinesterase in the lung strip preparation, so neither the test compound nor racemic bambuterol has significant effects. In order to test the compound of invention in vitro on isolated guinea-pig lung tissue, R-bambuterol and racemic bambuterol were administrated orally to guinea pigs at a dose of 8 mg/kg. Four hours later, blood was collected from the animals, and the serum containing the active parent form of the test compounds were prepared. The concentration of the active parent form, i.e. terbutaline, in serum measured using BPLC, was 64-70 ng/ml in the animal treated with R-bambuterol and 62-69 ng/ml in the animal treated with racemic bambuterol. The serum containing the active form of test compound was then added into the organ in a certain volume, so that the final concentration of the active forms of test compounds was 0.25 ng/ml in the organ bath. Concentration-response relationships were obtained using a cumulative dose schedule by adding the same volume of the serum into the organ bath. The test using the serum containing the active form of racemic bambuterol was done in parallel with the test compound in the same manner as described above.

rats = test: Cardiovascular effects in anesthetized rats; assay type: in vivo; details: 30 mg/kg intravenously
Text: Test method: Rats (Sprague Dawley, 250-300 g) were randomized into two groups (n=6, equal sexes). After anesthesia, plastic tubing was introduced into a carotid artery of each animal and connected to pressure transducers to record mean artery pressure (MBP) and heart rate (HR). Another tube was introduced into the left ventricular chamber via the another carotid artery and connected to a pressure transducer. Left ventricular systolic pressure (LVSP) and the first order of differential of LVSP (dp/dt) as an index for inotropic effects were recorded. R-Bambuterol and racemic bambuterol hydrochloride were dissolved in saline and administrated intravenously at 30 mg/kg to each animal. The HR, MBP and Max dp/dt were measured before treatment (control) and after the treatments when the maximum response occurred, and 20 min after treatment as indication of recovery.

[3] = system: conscious guinea pigs exposed to aerosol histamine; test: Protection against histamine-evoked asthma in conscious guinea pigs; assay type: in vivo, guinea pig; details: for Collapsed n: 8 animals; for % collapse / Latency time of collapse: dose-response, four hours before exposure
Protocol: Test methods: Guinea pigs (Dunki-Hartley strain, 190±30 g) were fasted overnight but given water ad libidum. The animals were restrained individually in a glass chamber and exposed to aerosol histamine generated by a nebulizer from a 0.2% aqueous solution of histamine under constant pressure at dose of 0.5 ml/min for a period of 15 sec. The animal was removed from the chamber, and its behavior was monitored. A sign of collapse and the latency time from exposure to collapse were recorded. Only the animals with latency time less than 120 sec, as an indication of sensitive to histamine, were chosen for later experiments. The animals chosen were allowed to recover completly by resting for 24 hours before experiments. Test compounds and racemic bambuterol hydrochloride were dissolved in saline.
Time course of the effect of test compounds: R-Bambuterol hydrochloride or racemic bambuterol hydrochloride at 2, 4 and 8 mg/kg, and vehicle alone, were administered to the guinea pigs orally via a stomach tube. Exposure of treated animals to aerosol histamine (as above) was done at 1, 4 and 24 hours after treatment. For each experimental group, there were a total of 8 animals with equal number of both sexes, and no repeated exposure was made for individual experimental animals.
Study of dose-response of test compounds: Four hours before the exposure to aerosol histamine, animals were randomized into groups (n=8, equal male and female), and given R-bambuterol hydrochloride or racemic bambuterol in doses of 0.25, 0.5, 1.0, 2.0, 4.0 and 8.0 mg/kg, and vehicle control, orally via a stomach tube. The numbers of collapsed animal as a result of asthmatic reaction to aerosol histamine were counted, and the latency times were recorded. Both of these parameters were used as quantitative measurements of the protective effects of the treatments on bronchospasm evoked by aerosol histamine.

SMILES: CN(C)C(=O)Oc1cc(OC(=O)N(C)C)cc(C(O)CNC(C)(C)C)c1 (stereo not drawn) [RS-bambuterol, bambuterol]
- Fraction of absorbed bambuterol hydrolyzed to terbutaline [1]: about 50%
- Concentration of the active parent form, terbutaline, in serum [2]: 62 to 69 ng/mL
- MBP 20 min after Δ, % of control (rats; 20 min after treatment): 8.3%
- MBP, 20 min after Δ (rats; 20 min after treatment): 1.1 ± 0.4 Kpa
- Maxdp/dt 20 min after Δ, % of control (rats; 20 min after treatment): 4.8%
- Maxdp/dt, 20 min after Δ (rats; 20 min after treatment): 13 ± 3.8 Kpa/sec
- HR 20 min after Δ, % of Control (rats; 20 min after treatment, listed as Rac-Bambuterol): 9.5%
- HR 20 min after Δ, % of Control (rats; 20 min after treatment, listed as racemic bambuterol hydrochloride): 9.5%
- HR Treatment Δ, % of Control (rats; maximum response): 20.6%
- HR, Treatment Δ (rats; maximum response): 85.8 ± 5 Beat/min
- MBP Treatment Δ, % of control (rats; maximum response): 31.6%
- MBP, Treatment Δ (rats; maximum response): 4.2 ± 0.5 Kpa
- Maxdp/dt, Treatment Δ (rats; maximum response): 65.4 ± 9 Kpa/sec
- Maxdp/dt Treatment Δ, % of control (rats; maximum response, listed as Rac-Bambuterol): 24.4%
- Maxdp/dt Treatment Δ, % of control (rats; maximum response, listed as racemic bambuterol): 24.4%
- Collapsed % ([3]; 2 mg/kg oral, 1st Hour): 75.0%
- Latency ([3]; 2 mg/kg oral, 1st Hour): 168 ± 61 s
- Collapsed n ([3]; 2 mg/kg oral, 1st Hour): 6.0
- Collapsed % ([3]; 2 mg/kg oral, 4th Hour): 50.0%
- Latency ([3]; 2 mg/kg oral, 4th Hour): 227 ± 56 s
- Collapsed n ([3]; 2 mg/kg oral, 4th Hour): 4.0
- Collapsed % ([3]; 2 mg/kg oral, 24th Hour): 50.0%
- Latency ([3]; 2 mg/kg oral, 24th Hour): 208 ± 65 s
- Collapsed n ([3]; 2 mg/kg oral, 24th Hour): 5.0
- Collapsed % ([3]; 4 mg/kg oral, 1st Hour): 62.5%
- Latency ([3]; 4 mg/kg oral, 1st Hour): 199 ± 63 s
- Collapsed n ([3]; 4 mg/kg oral, 1st Hour): 5.0
- Collapsed % ([3]; 4 mg/kg oral, 4th Hour): 25.0%
- Latency ([3]; 4 mg/kg oral, 4th Hour): 299 ± 51 s
- Collapsed n ([3]; 4 mg/kg oral, 4th Hour): 2.0
- Collapsed % ([3]; 4 mg/kg oral, 24th Hour): 37.5%
- Latency ([3]; 4 mg/kg oral, 24th Hour): 287 ± 57 s
- Collapsed n ([3]; 4 mg/kg oral, 24th Hour): 3.0
- Collapsed % ([3]; 8 mg/kg oral, 1st Hour): 37.5%
- Latency ([3]; 8 mg/kg oral, 1st Hour): 260 ± 66 s
- Collapsed n ([3]; 8 mg/kg oral, 1st Hour): 3.0
- Collapsed % ([3]; 8 mg/kg oral, 4th Hour): 0.0%
- Latency ([3]; 8 mg/kg oral, 4th Hour): >360 s
- Collapsed n ([3]; 8 mg/kg oral, 4th Hour): 0.0
- Collapsed % ([3]; 8 mg/kg oral, 24th Hour): 25.0%
- Latency ([3]; 8 mg/kg oral, 24th Hour): 303 ± 54 s
- Collapsed n ([3]; 8 mg/kg oral, 24th Hour): 2.0
- % collapse ([3]; 0.25 mg/kg oral): 100%
- Latency time of collapse ([3]; 0.25 mg/kg oral): 61 s
- % collapse ([3]; 0.5 mg/kg oral): 87.5%
- Latency time of collapse ([3]; 0.5 mg/kg oral): 114 s
- % collapse ([3]; 1 mg/kg oral): 75%
- Latency time of collapse ([3]; 1 mg/kg oral): 151 s
- % collapse ([3]; 2 mg/kg oral): 50%
- Latency time of collapse ([3]; 2 mg/kg oral): 227 s
- % collapse ([3]; 4 mg/kg oral): 25%
- Latency time of collapse ([3]; 4 mg/kg oral): 299 s
- % collapse ([3]; 8 mg/kg oral): 0%
- Latency time of collapse ([3]; 8 mg/kg oral): >360 s
- Duration of protective effects ([3]; oral 2 to 8 mg/kg): 24 h
- Onset of protective effects after administration ([3]; oral 2 to 8 mg/kg): one
- Time of maximum protective effects after administration ([3]; oral 2 to 8 mg/kg): 4 h
- Dose at which full protective effect was seen ([3]; oral, collapse after aerosol histamine): 8 mg/kg
- ED50 (protection against collapse) ([3]; oral, four hours before aerosol histamine): 1.68 mg/kg
- Dose at which maximum effects on latency were seen ([3]; oral, latency time to collapse): 8 mg/kg
